Source: ChEMBL document CHEMBL1208716, “Ceratinadins A-C, new bromotyrosine alkaloids from an Okinawan marine sponge Pseudoceratina sp” (2010)
Converted amounts (≈) assume the structure as drawn.

Assays:
[1] = test system: Cryptococcus neoformans; experiment: Antifungal activity against Cryptococcus neoformans; format: functional
[2] = test system: Candida albicans; experiment: Antifungal activity against Candida albicans; format: functional

MIC [1] | MIC [2] | Compound
4 µg/mL (≈ 5.99 µM) | 2 µg/mL (≈ 3 µM) | COC1=C(Br)[C@H](O)[C@@]2(C=C1Br)CC(C(=O)NCCc1cn(-c3cc(O)c4[nH]cc(O)c(=O)c4c3O)cn1)=NO2 [CERATINADIN A]
8 µg/mL (≈ 11.7 µM) | 4 µg/mL (≈ 5.86 µM) | COC1=C(Br)[C@H](O)[C@@]2(C=C1Br)CC(C(=O)NCCc1[nH]c(=N)[nH]c1-c1cc(O)c3[nH]cc(O)c(=O)c3c1O)=NO2 [CERATINADIN B]
> 32 µg/mL | > 32 µg/mL | N=c1[nH]cc(CCNC(=O)C2=NO[C@]3(C=C(Br)C(=O)[C@@H](Br)[C@@H]3O)C2)[nH]1 [CERATINADIN C]
